Data on ten compounds can be found in patent US10519114B2, “Peptidomimetics and methods of using the same” (The Regents of the University of Michigan, priority 2016, dated 2019).

In experiment [1] the target is T1, human κ (CHO-KOR) opioid receptor (Homo sapiens, UniProt P41145).
T1 construct: expressed in transfected cells
In words: Stimulation of [35S]GTPγS binding, KOR. The experiment is classed as biochemical. As to conditions: for EC50 (nm) KOR / EC50: [35S]GTPγS binding, CHO-KOR membranes, mean ± standard error; for % stimulation KOR / Emax: [35S]GTPγS maximal stimulation compared with 10 μM standard U-69,593. The gist of the method: (§1)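 Peptide-stimulated [35S]GTPγS (0.1 nM) binding, with 30 μM GDP, 5 mM MgCl2 and 100 mM NaCl at pH 7.4, was measured over 1 h at room temperature. Membranes came from rat MOR/DOR C6 or human KOR CHO cells. Filter-retained counts were expressed against 10 μM DAMGO, DPDPE or U69,593 respectively; maxima were fitted nonlinearly.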
A general note: Binding of GTPγS marks nucleotide exchange on a G protein.

Experiment [2] deals with T2, rat δ (C6-DOR) opioid receptor (Rattus norvegicus, UniProt P33533).
T2 construct: expressed in transfected cells
Briefly: Stimulation of [35S]GTPγS binding, DOR. The experiment is classed as biochemical. As to conditions: for EC50 / EC50 (nm) DOR: [35S]GTPγS binding, C6-DOR membranes, mean ± standard error; for Emax / % stimulation DOR: [35S]GTPγS maximal stimulation compared with 10 μM standard DPDPE. The gist of the method: as §1

In experiment [3] the target is T3, rat μ (C6-MOR) opioid receptor (Rattus norvegicus, UniProt P33535).
T3 construct: expressed in transfected cells
Briefly: Radioligand binding assay, [3H]diprenorphine displacement, MOR. As to conditions: displacement of 0.2 nM [3H]diprenorphine, C6-MOR membranes; mean ± standard error. The gist of the method: (§2)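 Competitive displacement of 0.2 nM [3H]diprenorphine is measured on 20 μg membrane protein from C6-MOR, C6-DOR or CHO-KOR cells in 50 mM Tris-HCl, pH 7.4. Binding equilibrates for 1 h at room temperature; naloxone (10 μM) defines nonspecific binding.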

In experiment [4] the target is T2, rat δ (C6-DOR) opioid receptor. Briefly: Radioligand binding assay, [3H]diprenorphine displacement, DOR. The settings on record: displacement of 0.2 nM [3H]diprenorphine, C6-DOR membranes; mean ± standard error. In a few lines: as §2
Experiment [5] has as its target T1, human κ (CHO-KOR) opioid receptor. In words: Radioligand binding assay, [3H]diprenorphine displacement, KOR. The settings on record: displacement of 0.2 nM [3H]diprenorphine, CHO-KOR membranes; mean ± standard error. In a few lines:
as §2

Experiment [6] deals with T3, rat μ (C6-MOR) opioid receptor. In words: Stimulation of [35S]GTPγS binding, MOR. It counts as biochemical. As to conditions: for EC50: [35S]GTPγS binding, C6-MOR membranes, mean ± standard error; for Emax: [35S]GTPγS maximal stimulation compared with 10 μM standard DAMGO. In a few lines:
as §1

The next experiment relates to C57BL/6 mice. Briefly: Antinociception, warm water tail withdrawal assay.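 On Antinociceptive activity: fully efficacious means no withdrawal up to the 20 s cutoff.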 It counts as in vivo. As to conditions: mouse tail withdrawal; for Antinociceptive activity: 50° C. water bath, cutoff 20 s, ip; for Duration: duration of antinociceptive action, 50° C. The protocol:
In Vivo Pharmacology. Animals. Adult male C57BL/6 mice weighing between 20 and 30 g at 8-16 weeks old were used for the current experiments (obtained from Jackson Laboratories (Bar Harbor, Me.), Harlan (Indianapolis, Ind.), or bred in-house). Mice were group-housed and had free access to food and water at all times. Experiments were conducted in the housing room, which was maintained on a 12 h light/dark cycle (with lights on at 0700). Each mouse was used only once and experiments were conducted between 11 a.m. and 4 p.m. Studies were performed in accordance with the University of Michigan Committee on the Use and Care of Animals and the Guide for the Care and Use of Laboratory Animals (National Research Council, 2011 publication).
Antinociception. The antinociceptive effects of the compounds disclosed herein and morphine can be evaluated in the warm water tail withdrawal assay using a cumulative dosing procedure. To determine tail withdrawal latencies, each mouse was placed briefly into a plastic, cylindrical restrainer and 2-3 cm of the tail tip was placed into a water bath maintained at 50° C. The latency to withdraw the tail was recorded with a maximum cutoff time of 20 s. […] Each animal received an injection of saline (intraperitoneal, ip) and then 30 min later, the baseline withdrawal latencies were recorded and ranged between 3 and 6 s. Following baseline determinations, three increasing doses (1, 2.2, and 6.8 mg/kg) of 1(4R) were given at 30 min intervals to provide final doses of 1, 3.2, and 10 mg/kg. Thirty minutes after each injection, the tail withdrawal latency was measured as described above. To confirm that 1(4R) was acting at opioid receptors, the cumulative dose response was repeated over the doses 3.2, 10, and 32 mg/kg following a 30 min pretreatment with 1 mg/kg naltrexone (ip). To determine the time-course of antinociceptive action the tail-withdrawal test was performed at varying times following administration of morphine (10 mg/kg, ip) or 1(4R) (10 mg/kg, ip).

T1 sequence (P41145 whole entry): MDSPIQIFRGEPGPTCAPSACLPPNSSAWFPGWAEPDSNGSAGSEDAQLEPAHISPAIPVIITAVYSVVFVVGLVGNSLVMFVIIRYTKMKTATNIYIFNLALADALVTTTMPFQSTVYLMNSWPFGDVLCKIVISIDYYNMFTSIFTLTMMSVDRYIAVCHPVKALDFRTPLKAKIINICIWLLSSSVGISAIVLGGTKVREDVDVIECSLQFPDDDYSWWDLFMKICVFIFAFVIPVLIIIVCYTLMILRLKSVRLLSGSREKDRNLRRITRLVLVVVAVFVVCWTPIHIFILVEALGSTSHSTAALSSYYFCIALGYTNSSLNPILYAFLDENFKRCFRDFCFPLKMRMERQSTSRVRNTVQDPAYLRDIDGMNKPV
T3 sequence (P33535 whole entry): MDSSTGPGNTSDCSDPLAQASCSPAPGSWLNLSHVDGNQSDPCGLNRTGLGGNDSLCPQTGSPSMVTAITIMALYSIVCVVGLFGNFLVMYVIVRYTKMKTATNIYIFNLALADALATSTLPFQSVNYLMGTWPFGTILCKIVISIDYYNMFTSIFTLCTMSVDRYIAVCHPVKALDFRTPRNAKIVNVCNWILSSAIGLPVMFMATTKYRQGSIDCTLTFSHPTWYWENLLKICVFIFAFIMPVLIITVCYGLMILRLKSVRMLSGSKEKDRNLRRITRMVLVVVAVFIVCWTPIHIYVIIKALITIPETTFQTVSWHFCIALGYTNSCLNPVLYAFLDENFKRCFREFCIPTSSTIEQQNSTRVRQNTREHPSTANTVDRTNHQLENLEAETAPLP
T2 sequence (P33533 whole entry): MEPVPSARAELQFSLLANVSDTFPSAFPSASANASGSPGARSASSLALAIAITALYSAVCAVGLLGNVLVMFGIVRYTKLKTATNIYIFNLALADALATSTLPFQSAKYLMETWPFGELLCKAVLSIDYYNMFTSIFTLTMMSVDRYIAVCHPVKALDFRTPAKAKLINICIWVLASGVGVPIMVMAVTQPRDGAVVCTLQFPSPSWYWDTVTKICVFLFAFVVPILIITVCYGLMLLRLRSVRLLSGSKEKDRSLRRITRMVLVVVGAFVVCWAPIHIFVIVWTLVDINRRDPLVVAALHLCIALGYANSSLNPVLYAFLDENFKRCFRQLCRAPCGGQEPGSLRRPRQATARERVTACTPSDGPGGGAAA

Usually EC50 stands for the concentration needed to bring the measured effect to its halfway point. Read a high EC50 as weaker potency. Broadly, the Emax is the size of the effect at its maximum, as opposed to the concentration needed. In general, Ki refers to the equilibrium dissociation constant of an inhibitor or competing ligand from its target. A low value points to higher affinity. For the compound `CCCc1cc(Cc2ccccc2)cc2c1NCC[C@H]2NC(=O)[C@@H](N)Cc1c(C)cc(O)cc1C` [Compound 1056], the “EC50 (nm) KOR” value in experiment [1] is on record as “dns”. Also, the “% stimulation KOR” value in experiment [1] is listed as “dns”. The EC50 in experiment [2] is 307 ± 28.6 nM; in experiment [6], 23.3 ± 6.94 nM. Also, the Emax in experiment [2] turned out to be 35.7 ± 2.62%; in experiment [6], 89.5 ± 6.27%. Moreover, the inhibition constant Ki in experiment [3] stood at 0.64 ± 0.08 nM; in experiment [4], 5.89 ± 1.5 nM; in experiment [5], 98.4 ± 18.2 nM. Besides, in the experiment with C57BL/6 mice, the Antinociceptive activity result is “Inactive”.

Consider `Cc1cc(O)cc(C)c1C[C@H](N)C(=O)N[C@@H]1CCNc2c1cc(Cc1ccccc1)cc2C(C)(C)C` [Compound 1057], for which the “EC50 (nm) KOR” value in experiment [1] is “dns”. In addition, the “% stimulation KOR” value in experiment [1] was “dns”. Moreover, the EC50 in experiment [2] worked out at 238 ± 39.3 nM; in experiment [6], 9.87 ± 3.55 nM. Also, the Emax in experiment [2] came out at 57.9 ± 14%; in experiment [6], 83.2 ± 4.6%. Further, the inhibition constant Ki is 0.91 ± 0.4 nM in experiment [3], 3.78 ± 0.66 nM in experiment [4] and 64.7 ± 17.8 nM in experiment [5]. For the same compound, the Antinociceptive activity result with C57BL/6 mice is “Partially active”.

`Cc1cc(O)cc(C)c1C[C@H](N)C(=O)N[C@@H]1CCNc2c(-c3ccoc3)cc(Cc3ccccc3)cc21` [Compound 1094]: the EC50 in experiment [1] was determined as 290 nM; in experiment [2] it was 74.9 ± 61.5 nM; in experiment [6] it was 9.77 ± 6.34 nM. Besides, the Emax came to 29% in experiment [1], 36.7 ± 5.53% in experiment [2] and 103 ± 5% in experiment [6]. Further, the values for the Ki in experiment [3], in experiment [4] and in experiment [5] were 0.34 ± 0.08 nM, 3.49 ± 0.55 nM and 27.9 ± 6.24 nM, respectively. Moreover, in the experiment with C57BL/6 mice, the Antinociceptive activity entry is given as “Inactive”.

Turning to `Cc1cc(O)cc(C)c1C[C@H](N)C(=O)N[C@@H]1CCNc2c(CCc3ccccc3)cc(Cc3ccccc3)cc21` [Compound 1098], in experiment [1], the “EC50 (nm) KOR” value is listed as “dns” and the “% stimulation KOR” value is reported as “dns”. For the same compound, in experiment [2], the “EC50 (nm) DOR” value was “dns” and the “% stimulation DOR” value is recorded as “dns”. Also, affinity in experiment [3] was put at a Ki of 0.64 ± 0.34 nM. In addition, the Ki in experiment [4] was 0.69 ± 0.03 nM. For the same compound, in experiment [5], the inhibition constant (Ki) was 27.5 ± 7.81 nM. In experiment [6], the concentration for a half-maximal effect (EC50) stood at 44.4 ± 16.6 nM and the maximal response (Emax) came out at 78.4 ± 1.26%. For the same compound, in the experiment on C57BL/6 mice, the Antinociceptive activity result is “Inactive”.

On to `Cc1cc(O)cc(C)c1C[C@H](N)C(=O)N[C@@H]1CCNc2c(CN3CCOCC3)cc(Cc3ccccc3)cc21` [Compound 1099], for which, in experiment [1], the “EC50 (nm) KOR” value was “dns”. In addition, the “% stimulation KOR” value in experiment [1] was “dns”. The EC50 in experiment [2] came to 172 ± 65.8 nM; in experiment [6] it was 1.84 ± 0.41 nM. The Emax in experiment [2] worked out at 29 ± 6.78%; in experiment [6], 96.1 ± 1.76%. Also, the results for the Ki in experiment [3], in experiment [4] and in experiment [5] were 0.15 ± 0.04 nM, 2.61 ± 0.79 nM and 19.4 ± 8.53 nM, respectively. Further, in the experiment on C57BL/6 mice, the Antinociceptive activity result is given as “Inactive”.

With `CCCCc1cc(Cc2ccccc2)cc2c1NCC[C@H]2NC(=O)[C@@H](N)Cc1c(C)cc(O)cc1C` [Compound 1126], in experiment [1], the “EC50 (nm) KOR” value is on record as “dns” and the “% stimulation KOR” value was “dns”. Further, in experiment [2], a half-maximal effect (EC50) was put at 200 ± 77 nM and the maximum response (Emax) stood at 24.9 ± 4.43%. Further, the affinity in experiment [3], expressed as Ki, was 0.75 ± 0.4 nM. Also, the Ki in experiment [4] worked out at 3.55 ± 0.46 nM. In experiment [5], this compound came in with a Ki of 34.4 ± 4.7 nM. In experiment [6], this compound displayed an EC50 of 17.9 ± 5.83 nM and an Emax of 85 ± 2%. In the experiment with C57BL/6 mice, the Duration was 150 min and the Antinociceptive activity entry was “Fully efficacious”.

Consider `CCc1cc(Cc2ccccc2)cc2c1NCC[C@H]2NC(=O)[C@@H](N)Cc1c(C)cc(O)cc1C` [Compound 1127], for which, in experiment [1], the “EC50 (nm) KOR” value is “dns” and the “% stimulation KOR” value is on record as “dns”. In experiment [2], this compound showed an EC50 of 23 nM and a maximal effect (Emax) of 48%. The compound further displayed an inhibitory constant (Ki) in experiment [3] of 0.05 nM. Also, the affinity in experiment [4], expressed as Ki, was 4.6 nM. The Ki in experiment [5] came to 44 nM. In addition, in experiment [6], the concentration for a half-maximal effect (EC50) turned out to be 37 nM and the Emax came to 75%. Further, in the experiment on C57BL/6 mice, the Duration came to 60 min and the Antinociceptive activity result is “Fully efficacious”.

On to `Cc1cc(O)cc(C)c1C[C@H](N)C(=O)N[C@@H]1CCNc2c(Br)cc(Cc3ccccc3)cc21` [Compound 1128], for which the 50% effective concentration (EC50) was 300 nM in experiment [1], 36 nM in experiment [2] and 1.2 nM in experiment [6]. Further, the results for the maximal effect (Emax) in experiment [1], in experiment [2] and in experiment [6] were 30%, 69% and 73%, respectively. The Ki was 0.2 nM in experiment [3], 2.2 nM in experiment [4] and 27 nM in experiment [5]. The Antinociceptive activity result in the experiment with C57BL/6 mice was “Inactive”.

On to `Cc1cc(O)cc(C)c1C[C@H](N)C(=O)N[C@@H]1CCNc2c1cc(Cc1ccccc1)cc2C(F)(F)F` [Compound 1129], for which the results for the EC50 in experiment [1], in experiment [2] and in experiment [6] were 600 nM, 50 nM and 1.8 nM, respectively. Also, the maximal effect (Emax) in experiment [1] was 17%; in experiment [2], 42%; in experiment [6], 70%. For the same compound, the inhibitory constant (Ki) was found to be 0.3 nM in experiment [3], 3.7 nM in experiment [4] and 21 nM in experiment [5]. For the same compound, the Antinociceptive activity result with C57BL/6 mice is “Inactive”.

Turning to `Cc1cc(O)cc(C)c1C[C@H](N)C(=O)N[C@@H]1CCNc2c(C(=O)O)cc(Cc3ccccc3)cc21` [Compound 1130], in experiment [1], the “EC50 (nm) KOR” value is “dns” and the “% stimulation KOR” value is recorded as “dns”. In experiment [2], the “EC50 (nm) DOR” value is recorded as “dns” and the “% stimulation DOR” value is given as “dns”. The affinity in experiment [3], expressed as Ki, was 0.6 nM. In experiment [4], this compound displayed an inhibition constant (Ki) of 2.3 nM. In experiment [5], the Ki was determined as 700 nM. In experiment [6], this compound had an EC50 of 4 nM and an Emax of 60%. Further, the Antinociceptive activity result with C57BL/6 mice is “Inactive”.
